From PubChem BioAssay (NCI)
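Briefly, cells in 96-well plates were exposed to five compound concentrations for 48 h, and endpoints were estimated by linear interpolation. GI50: concentration for 50% inhibition of growth. TGI denotes the concentration required for complete inhibition of growth.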

How the values were obtained:
Assay in all cases: NCI anticancer screen, dose series, 48 h
SN12C renal = tested on: SN12C renal
HCT-116 colon = tested on: HCT-116 colon
U251 CNS = tested on: U251 CNS
EKVX NSCLC = tested on: EKVX NSCLC
OVCAR-5 ovarian = tested on: OVCAR-5 ovarian
MCF7 breast = tested on: MCF7 breast
UACC-62 melanoma = tested on: UACC-62 melanoma
A498 renal = tested on: A498 renal
SK-OV-3 ovarian = tested on: SK-OV-3 ovarian
HCT-15 colon = tested on: HCT-15 colon
SR leukemia = tested on: SR leukemia
HOP-62 NSCLC = tested on: HOP-62 NSCLC
ACHN renal = tested on: ACHN renal
MALME-3M melanoma = tested on: MALME-3M melanoma
HS 578T breast = tested on: HS 578T breast
NCI-H522 lung = tested on: NCI-H522 lung
MDA-MB-435 = tested on: MDA-MB-435
A549 NSCLC = tested on: A549 NSCLC
CCRF-CEM leukemia = tested on: CCRF-CEM leukemia
NCI-H23 lung = tested on: NCI-H23 lung
SF-539 CNS = tested on: SF-539 CNS
MOLT-4 leukemia = tested on: MOLT-4 leukemia
RXF 393 renal = tested on: RXF 393 renal
OVCAR-3 ovarian = tested on: OVCAR-3 ovarian
KM12 colon = tested on: KM12 colon
IGROV1 ovarian = tested on: IGROV1 ovarian
786-0 renal = tested on: 786-0 renal
CAKI-1 renal = tested on: CAKI-1 renal
HCC-2998 colon = tested on: HCC-2998 colon
HL-60(TB) leukemia = tested on: HL-60(TB) leukemia
BT-549 breast = tested on: BT-549 breast
HOP-92 NSCLC = tested on: HOP-92 NSCLC
SNB-75 CNS = tested on: SNB-75 CNS
SW-620 colon = tested on: SW-620 colon
SF-295 CNS = tested on: SF-295 CNS
SNB-19 CNS = tested on: SNB-19 CNS
NCI/ADR-RES ovarian = tested on: NCI/ADR-RES ovarian
SK-MEL-5 melanoma = tested on: SK-MEL-5 melanoma
HT29 colon = tested on: HT29 colon
NCI-H226 lung = tested on: NCI-H226 lung
TK-10 renal = tested on: TK-10 renal
OVCAR-8 ovarian = tested on: OVCAR-8 ovarian
COLO 205 colon = tested on: COLO 205 colon
K-562 leukemia = tested on: K-562 leukemia
UO-31 renal = tested on: UO-31 renal
SK-MEL-28 melanoma = tested on: SK-MEL-28 melanoma
RPMI-8226 leukemia = tested on: RPMI-8226 leukemia
LOX IMVI melanoma = tested on: LOX IMVI melanoma
UACC-257 melanoma = tested on: UACC-257 melanoma
PC-3 prostate = tested on: PC-3 prostate
OVCAR-4 ovarian = tested on: OVCAR-4 ovarian
DU-145 prostate = tested on: DU-145 prostate
SF-268 CNS = tested on: SF-268 CNS
NCI-H460 lung = tested on: NCI-H460 lung
T-47D breast = tested on: T-47D breast
SK-MEL-2 melanoma = tested on: SK-MEL-2 melanoma
M14 melanoma = tested on: M14 melanoma
MDA-MB-231 breast = tested on: MDA-MB-231 breast

SMILES: CCCN(CCC)c1ccc(C=O)c(OC)c1
- GI50 (SN12C renal): 32.7 µM
- TGI (SN12C renal): > 100 µM
- GI50 (HCT-116 colon): 25.5 µM
- TGI (HCT-116 colon): > 100 µM
- GI50 (U251 CNS): 28.1 µM
- TGI (U251 CNS): > 100 µM
- GI50 (EKVX NSCLC): 16.1 µM
- TGI (EKVX NSCLC): 76.1 µM
- GI50 (OVCAR-5 ovarian): 19.5 µM
- TGI (OVCAR-5 ovarian): > 100 µM
- GI50 (MCF7 breast): 19.1 µM
- TGI (MCF7 breast): 81.3 µM
- GI50 (UACC-62 melanoma): 16.3 µM
- TGI (UACC-62 melanoma): 55.4 µM
- GI50 (A498 renal): 1.37 µM
- TGI (A498 renal): 7.79 µM
- GI50 (SK-OV-3 ovarian): 25.8 µM
- TGI (SK-OV-3 ovarian): > 100 µM
- GI50 (HCT-15 colon): 24.1 µM
- TGI (HCT-15 colon): > 100 µM
- GI50 (SR leukemia): 10.7 µM
- TGI (SR leukemia): 34.5 µM
- GI50 (HOP-62 NSCLC): 32 µM
- TGI (HOP-62 NSCLC): > 100 µM
- GI50 (ACHN renal): 21.4 µM
- TGI (ACHN renal): > 100 µM
- GI50 (MALME-3M melanoma): 18.7 µM
- TGI (MALME-3M melanoma): 64.6 µM
- GI50 (HS 578T breast): 15.5 µM
- TGI (HS 578T breast): 94.4 µM
- GI50 (NCI-H522 lung): 18.1 µM
- TGI (NCI-H522 lung): 67.3 µM
- GI50 (MDA-MB-435): 20 µM
- TGI (MDA-MB-435): 78.9 µM
- GI50 (A549 NSCLC): 28.3 µM
- TGI (A549 NSCLC): > 100 µM
- GI50 (CCRF-CEM leukemia): 24.4 µM
- TGI (CCRF-CEM leukemia): > 100 µM
- GI50 (NCI-H23 lung): 22.2 µM
- TGI (NCI-H23 lung): > 100 µM
- GI50 (SF-539 CNS): 26 µM
- TGI (SF-539 CNS): > 100 µM
- GI50 (MOLT-4 leukemia): 11.9 µM
- TGI (MOLT-4 leukemia): 40.4 µM
- GI50 (RXF 393 renal): 26.9 µM
- TGI (RXF 393 renal): > 100 µM
- GI50 (OVCAR-3 ovarian): 15.1 µM
- TGI (OVCAR-3 ovarian): 33.9 µM
- GI50 (KM12 colon): 23.7 µM
- TGI (KM12 colon): 83.8 µM
- GI50 (IGROV1 ovarian): 32.8 µM
- TGI (IGROV1 ovarian): > 100 µM
- GI50 (786-0 renal): 29.4 µM
- TGI (786-0 renal): > 100 µM
- GI50 (CAKI-1 renal): 22.7 µM
- TGI (CAKI-1 renal): 80.4 µM
- GI50 (HCC-2998 colon): 24.9 µM
- TGI (HCC-2998 colon): > 100 µM
- GI50 (HL-60(TB) leukemia): 12.4 µM
- TGI (HL-60(TB) leukemia): 38 µM
- GI50 (BT-549 breast): 22 µM
- TGI (BT-549 breast): 80.2 µM
- GI50 (HOP-92 NSCLC): 13.3 µM
- TGI (HOP-92 NSCLC): 86.7 µM
- GI50 (SNB-75 CNS): 16.4 µM
- TGI (SNB-75 CNS): 95.9 µM
- GI50 (SW-620 colon): 22.9 µM
- TGI (SW-620 colon): > 100 µM
- GI50 (SF-295 CNS): 15.8 µM
- TGI (SF-295 CNS): 64.5 µM
- GI50 (SNB-19 CNS): 29.4 µM
- TGI (SNB-19 CNS): > 100 µM
- GI50 (NCI/ADR-RES ovarian): 28.9 µM
- TGI (NCI/ADR-RES ovarian): > 100 µM
- GI50 (SK-MEL-5 melanoma): 14.5 µM
- TGI (SK-MEL-5 melanoma): 29.3 µM
- GI50 (HT29 colon): 17 µM
- TGI (HT29 colon): 70.8 µM
- GI50 (NCI-H226 lung): 28.5 µM
- TGI (NCI-H226 lung): > 100 µM
- GI50 (TK-10 renal): 24.2 µM
- TGI (TK-10 renal): 86.1 µM
- GI50 (OVCAR-8 ovarian): 27.5 µM
- TGI (OVCAR-8 ovarian): > 100 µM
- GI50 (COLO 205 colon): 22.3 µM
- TGI (COLO 205 colon): 63.4 µM
- GI50 (K-562 leukemia): 19.2 µM
- TGI (K-562 leukemia): > 100 µM
- GI50 (UO-31 renal): 16.5 µM
- TGI (UO-31 renal): > 100 µM
- GI50 (SK-MEL-28 melanoma): 21.3 µM
- TGI (SK-MEL-28 melanoma): 83.9 µM
- GI50 (RPMI-8226 leukemia): 58.6 µM
- TGI (RPMI-8226 leukemia): > 100 µM
- GI50 (LOX IMVI melanoma): 25.8 µM
- TGI (LOX IMVI melanoma): > 100 µM
- GI50 (UACC-257 melanoma): 18.5 µM
- TGI (UACC-257 melanoma): 61.2 µM
- GI50 (PC-3 prostate): 29.1 µM
- TGI (PC-3 prostate): > 100 µM
- GI50 (OVCAR-4 ovarian): 19.4 µM
- TGI (OVCAR-4 ovarian): 91.7 µM
- GI50 (DU-145 prostate): 26.6 µM
- TGI (DU-145 prostate): > 100 µM
- GI50 (SF-268 CNS): 22 µM
- TGI (SF-268 CNS): > 100 µM
- GI50 (NCI-H460 lung): 24 µM
- TGI (NCI-H460 lung): > 100 µM
- GI50 (T-47D breast): 12.5 µM
- TGI (T-47D breast): 57.5 µM

SMILES: CCOC(=O)C1=C(C)N(Cc2ccc(Cl)cc2Cl)C2(O)C(OC)CC(=O)C3C(=O)N(c4ccccc4)C(=O)C132 (stereo not given)
- TGI (SN12C renal): 9.9 µM
- TGI (HCT-116 colon): 4.12 µM
- TGI (U251 CNS): 3.69 µM
- TGI (EKVX NSCLC): 16.7 µM
- TGI (OVCAR-5 ovarian): 28.5 µM
- TGI (SK-MEL-2 melanoma): 7.01 µM
- TGI (MCF7 breast): 8.46 µM
- TGI (UACC-62 melanoma): 11.9 µM
- TGI (A498 renal): 22.7 µM
- TGI (HCT-15 colon): 2.64 µM
- TGI (HOP-62 NSCLC): 2.51 µM
- TGI (ACHN renal): 15.2 µM
- TGI (MALME-3M melanoma): 23.9 µM
- TGI (HS 578T breast): 92.8 µM
- TGI (NCI-H522 lung): 7.56 µM
- TGI (MDA-MB-435): 11.8 µM
- TGI (A549 NSCLC): 12.4 µM
- TGI (CCRF-CEM leukemia): 4.11 µM
- TGI (NCI-H23 lung): 15.7 µM
- TGI (SF-539 CNS): 12.7 µM
- TGI (MOLT-4 leukemia): 7.82 µM
- TGI (RXF 393 renal): 3.14 µM
- TGI (OVCAR-3 ovarian): 3.44 µM
- TGI (KM12 colon): 9.03 µM
- TGI (IGROV1 ovarian): 16.9 µM
- TGI (786-0 renal): 4.11 µM
- TGI (CAKI-1 renal): 19.5 µM
- TGI (HCC-2998 colon): 5.29 µM
- TGI (HL-60(TB) leukemia): 6.9 µM
- TGI (BT-549 breast): 5.61 µM
- TGI (HOP-92 NSCLC): 7.95 µM
- TGI (M14 melanoma): 13.5 µM
- TGI (MDA-MB-231 breast): 7.16 µM
- TGI (SW-620 colon): 7.15 µM
- TGI (SF-295 CNS): 20.2 µM
- TGI (SNB-19 CNS): 11.8 µM
- TGI (NCI/ADR-RES ovarian): 7.63 µM
- TGI (SK-MEL-5 melanoma): 16.2 µM
- TGI (HT29 colon): 4 µM
- TGI (NCI-H226 lung): 9.02 µM
- TGI (TK-10 renal): 22.8 µM
- TGI (OVCAR-8 ovarian): 6.19 µM
- TGI (COLO 205 colon): 13.4 µM
- TGI (K-562 leukemia): 3.87 µM
- TGI (UO-31 renal): 18.7 µM
- TGI (SK-MEL-28 melanoma): 4.37 µM
- TGI (RPMI-8226 leukemia): 8.61 µM
- TGI (LOX IMVI melanoma): 2.23 µM
- TGI (UACC-257 melanoma): 18.2 µM
- TGI (PC-3 prostate): 15.1 µM
- TGI (OVCAR-4 ovarian): 8.05 µM
- TGI (DU-145 prostate): 2.75 µM
- TGI (SF-268 CNS): 14.3 µM
- TGI (NCI-H460 lung): 12.5 µM
- TGI (T-47D breast): 2.57 µM
